Results published in US8580962B2, “Spiroheterocyclic compounds as mGlu5 antagonists” (Recordati Ireland Ltd., priority 2010, dated 2013).

Key:
[1] = system: conscious rats; assay: Effect on cystometry in conscious rats (bladder volume capacity); format: in vivo, rat; settings: for MED (Minimal Effective Dose that induces statistically significant increase of bladder volume capacity): oral administration; for increase of bladder volume capacity: orally
Protocol: Male Sprague-Dawley rats [Crl: CD® (SD) IGS BR] of 300-400 g b.w. supplied by Charles River Italia were used. The animals were housed with free access to food and water and maintained on a forced 12-hour-light/12-hour-dark cycle at 22-24° C. of temperature, except during the experiment. To quantify urodynamic parameters in conscious rats, cystometrographic studies were performed according to the procedure previously reported (Guarneri et al., Pharmacol. Res. 24: 175, 1991).
Briefly, the rats were anaesthetised by intraperitoneal administration of 3 ml/kg of Equithensin solution (pentobarbital 30 mg/kg and chloral hydrate 125 mg/kg) and placed in a supine position. An approximately 10 mm long midline incision was made in the shaved and cleaned abdominal wall. The urinary bladder was gently freed from adhering tissues, emptied and then cannulated via an incision in the bladder body, using a polyethylene cannula (0.58 mm internal diameter, 0.96 mm external diameter) which was permanently sutured with silk thread. The cannula was exteriorised through a subcutaneous tunnel in the retroscapular area, where it was connected to a plastic adapter in order to avoid the risk of removal by the animal. For drug testing, the rats were utilised one day after implantation.
On the day of the experiment, the rats were placed in modified Bollman cages, i.e., restraining cages that were large enough to permit the rats to adopt a normal crouched posture, but narrow enough to prevent turning around. […] The intraluminal-pressure signal during infusion of saline into the bladder (cystometrogram) was continuously recorded on a polygraph (Rectigraph-8K San-ei with BM614/2 amplifier from Biomedica Mangoni) or stored on PC by data acquisition system (PowerLab, Chart 4 software, AD Instruments). From the cystometrogram, bladder volume capacity (BVC) was evaluated. […] Basal BVC value was evaluated as the mean of the values observed in the cystometrograms recorded in an initial period of 30-60 minutes. […] The bladder infusion restarted and changes in BVC were evaluated from the mean values obtained in the cystometrograms observed during 1, 2, and 3 hours after treatment. […]
Each experimental group was composed of 4-11 animals. All data were expressed as mean±standard error. The percent change of BVC versus the basal value, as well as Δ value (difference in ml) of BVC (BVC at time “x” minus basal value), were also evaluated for each rat/time. […]
Statistical analysis on BVC values, as well as on Δ values, was performed by S.A.S./STAT software, version 6.12. The difference between vehicle and active treatment effect was evaluated on Δ values of BVC, whereas the difference between the values at different times versus the basal values was evaluated on original BVC data.

[2] = biological target: T1, mGlu5 receptor (Rattus norvegicus, UniProt P31424); assay: Radioligand binding assay at metabotropic glutamate receptor 5 in rat brain; settings: [3H]MPEP, rat forebrain membranes; read-out: affinity (Ki) for mGlu5 receptor
T1 construct: from tissue; host or cells: rat forebrain (cortex, striatum and hippocampus) membranes, male Sprague Dawley rats
T1 sequence (P31424 21-1203): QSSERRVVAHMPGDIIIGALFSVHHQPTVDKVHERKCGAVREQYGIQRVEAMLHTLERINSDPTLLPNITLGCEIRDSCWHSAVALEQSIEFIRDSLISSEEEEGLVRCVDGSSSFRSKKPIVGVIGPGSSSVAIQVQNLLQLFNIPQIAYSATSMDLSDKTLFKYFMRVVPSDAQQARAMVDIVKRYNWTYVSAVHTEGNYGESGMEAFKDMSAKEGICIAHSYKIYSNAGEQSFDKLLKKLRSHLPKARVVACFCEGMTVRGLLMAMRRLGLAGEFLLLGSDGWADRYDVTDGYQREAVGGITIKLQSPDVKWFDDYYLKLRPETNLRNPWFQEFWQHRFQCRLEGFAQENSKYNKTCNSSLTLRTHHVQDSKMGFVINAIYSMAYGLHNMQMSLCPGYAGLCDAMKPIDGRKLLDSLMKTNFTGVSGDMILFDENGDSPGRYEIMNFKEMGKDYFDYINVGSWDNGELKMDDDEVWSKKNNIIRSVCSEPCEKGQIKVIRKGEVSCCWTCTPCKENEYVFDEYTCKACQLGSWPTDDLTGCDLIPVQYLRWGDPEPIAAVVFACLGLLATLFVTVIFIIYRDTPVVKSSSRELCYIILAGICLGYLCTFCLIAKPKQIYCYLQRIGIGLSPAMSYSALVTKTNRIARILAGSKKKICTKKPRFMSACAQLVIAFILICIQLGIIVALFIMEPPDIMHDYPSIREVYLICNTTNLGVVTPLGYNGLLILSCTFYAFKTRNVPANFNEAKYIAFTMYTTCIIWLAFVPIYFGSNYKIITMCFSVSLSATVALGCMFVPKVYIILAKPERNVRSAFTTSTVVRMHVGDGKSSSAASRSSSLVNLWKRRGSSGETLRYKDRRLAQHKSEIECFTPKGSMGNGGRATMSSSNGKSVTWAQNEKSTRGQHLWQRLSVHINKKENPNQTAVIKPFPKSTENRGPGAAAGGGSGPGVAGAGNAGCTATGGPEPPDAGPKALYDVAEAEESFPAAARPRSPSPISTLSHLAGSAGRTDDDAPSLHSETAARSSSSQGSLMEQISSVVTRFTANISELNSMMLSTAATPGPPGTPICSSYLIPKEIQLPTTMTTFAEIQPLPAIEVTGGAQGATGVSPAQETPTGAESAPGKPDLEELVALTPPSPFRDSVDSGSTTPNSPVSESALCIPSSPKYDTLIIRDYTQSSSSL
Protocol: Radioligand Binding Assay at Metabotropic Glutamate Receptor 5 in Rat Brain.
a) Membrane preparation: male Sprague Dawley rats (200-300 g, Charles River, Italy) were killed by cervical dislocation and the forebrain (cortex, striatum and hippocampus) was homogenized (2×20 sec) in 50 vols of cold 50 mM Tris buffer pH 7.4, using a Politron homogenizer (Kinematica). Homogenates were centrifuged at 48000×g for 15 min, resuspended in 50 vols of the same buffer, incubated at 37° C. for 15 min and centrifuged and resuspended two more times. The final pellets were frozen and stored at −80° C. until use.
b) Binding assay: pellets from rat forebrain were resuspended in 100 vols of 20 mM HEPES, 2 mM MgCl2, 2 mM CaCl2, pH 7.4. The membranes were incubated in a final volume of 1 ml for 60 min at 25° C. with 4 nM [^3H]MPEP in the absence or presence of competing drugs. Non-specific binding was determined in the presence of 10 μM MPEP (Spooren W. et al., Trends Pharmacol Sci. 22, 331-337, 2001). The incubation was stopped by the addition of cold Tris buffer pH 7.4 and rapid filtration through 0.5% polyethyleneimine pretreated Filtermat 1204-401 (Wallac) filters. The filters were then washed with cold buffer and the radioactivity retained on the filters was counted by liquid scintillation spectrometry. […]

SMILES	MED (Minimal Effective Dose that induces statistically significant increase of bladder volume capacity) [1]	Ki [2]	increase of bladder volume capacity ([1]; 1 mg/kg)	increase of bladder volume capacity ([1]; 3 mg/kg, statistically significant from the vehicle group after 3 hours from treatment)
Clc1cccc(C#CC2=NOC3(CCC4(CCCO4)CC3)C2)c1 (single isomer, unassigned) [Example 78, 3-[(3-Chlorophenyl)ethynyl]-1,9-dioxa-2-azadispiro[4.2.4.2]tetradec-2-ene]	3 mg/kg	–	–	–
CON(C)C(=O)N1CCC2(CC(C#Cc3cccc(Cl)c3)=NO2)C1 (stereo not drawn) [Example 110, 7-[2-(3-Chlorophenyl)ethynyl]-N-methoxy-N-methyl-9-oxa-3,8-diazaspiro[4.4]non-7-ene-3-carboxamide]	–	1.49 nM	–	–
Cc1nc(C#Cc2cccnc2)cs1 [MTEP]	3 mg/kg	–	only a slight increase	sustained increase
Cc1ccc([N+](=O)[O-])c(N2CCC3(CC2)CC(C#Cc2cccc(Cl)c2)=NO3)n1 [Example 12, 3-[(3-Chlorophenyl)ethynyl]-8-(6-methyl-3-nitropyridin-2-yl)-1-oxa-2,8-diazaspiro[4.5]dec-2-ene]	–	3.88 nM	–	–
